Legend:
learning behavior = experiment: Eight-armed labyrinth learning test; format: in vivo, rat; conditions: rats, 2 mg/kg intraperitoneally daily, 2 hours before session; control group 14 days
Protocol: In an eight-armed labyrinth the effect of 6F9MβC on the learning behavior was tested. 5 months old male rats were got used to the experimenter in daily sessions for 10 days. Afterwards, they were allowed to explore the labyrinth in multiple sessions for 2 days and they also learnt that they get a food reward there. Then the food was reduced until the body weight was reduced by 10% of the starting weight. Afterwards, at each end of the 8 arms of the labyrinth food was placed and a camera installed that recorded every movement of the animal. On the first test day the rat was placed without a prior injection on the platform in the center of the labyrinth. At the next day 2 mg/kg body weight 6-fluoro-9-methyl-β-carboline (6F9MβC) as free base dissolved in physiological sodium chloride solution was administered intraperitoneally to the rat by the experimenter. 2 hours later the animal was placed on the platform in the center of the labyrinth from where it had access to all arms. This procedure was repeated daily until the animal only did one mistake, i.e. went in an arm, which it had already entered before in the corresponding session. At the end of the session all 8 arms had to be visited.
12 rats, that were treated with 6F9MβC and a control group of 12 rats, that only got physiological sodium chloride solution, were examined. […]

CREB = experiment: Examination on cellular level: concentration of CREB; format: cell-based
[1] = test system: BDNF (brain-derived neurotrophic factor); experiment: Quantitative RT-PCR, relative gene expression of BDNF in SH-SY5Y cells; format: cell-based, human; conditions: 30 μM each, SH-SY5Y
Protocol: (§1) SH-SY5Y cell lines, which were provided by the institute of human genetics of university hospital Eppendorf and which they in turn received from Braunschweig resource center, were used again for the RT-PCR experiments (reverse transcriptase polymerase chain reaction) carried out for this purpose.
(§2) The cells were incubated in MEM (Minimum essential medium, Life Technologies) with 10% FCS (fetal calf serum, Biochrom AG) and penicillin/streptomycin (Biochrom AG). The cells were seeded with a density of 1×10^5 cells/cm^2 in 25 cm^2 cell culture bottles (Falcon, cell culture treated) with 5 mL medium. Stock solutions of 10 mmol/L of compounds 9-methyl-β-carboline (AC-002 or 9MβC) and 6-fluoro-9-methyl-β-carboline (AC-102 or 6F9MβC), respectively were prepared in distillated water and sterile filtered. One day after the cell seeding the compounds were added in corresponding amounts (5-55 μL) to reach final concentration in the medium of 10 μM, 20 μM and 30 μM for 6F9MβC and 30 μM, 50 μM and 70 μM for 9MβC. The references received only the corresponding amount of solvent (distilled water). The medium was changed once a week.
(§3) The cells were regularly microscopically examined and harvest after 2, 7 and 14 days of incubation time, washed with PBS and immediately frozen at −80° C.
(§4) The RNA-isolation was done with the HighPure RNA Isolation kit of the company Roche. […] The concentration of RNA was measured with nanoDrop spectrometer and the RNA integrity was determined with the aid of the Bioanalyzer 2100 (Agilent). […]
(§5) After the reaction, this run was diluted 1:4 and thereof 2 μL per each quantitative RT-PCR were used. This was performed in a LightCycler 480 under standard conditions in the SybrGreen format with annealing temperatures determined for each primer individually. […]
The specificity was verified by melting curve analysis and subsequent gel electrophoresis. For each PCR the PCR efficiency and the Cq value was determined by the program LinRegPCR and these were used in further calculations. […] Every measured value from FIGS. 5A-5I represents a mean value of 3 independent biologic samples. […]

[2] = test system: Lif (Leukemia inhibitory factor); experiment: Quantitative RT-PCR, relative gene expression of Lif in SH-SY5Y cells; format: cell-based, human; conditions: 30 μM each
Protocol: as §1, §2, §3
The RNA-isolation was done with the HighPure RNA Isolation kit of the company Roche. This isolation includes a DNaseI digestion. The concentration of RNA was measured with nanoDrop spectrometer and the RNA integrity was determined with the aid of the Bioanalyzer 2100 (Agilent). By using random hexamer primers, protector RNA inhibitor (Roche) and transcriptor reverse transcriptase (fermentas), 300 ng RNA were transcribed into cDNA per each sample.
After the reaction, this run was diluted 1:4 and thereof 2 μL per each quantitative RT-PCR were used. This was performed in a LightCycler 480 under standard conditions in the SybrGreen format with annealing temperatures determined for each primer individually. If possible, exon spanning primers were used.
The specificity was verified by melting curve analysis and subsequent gel electrophoresis. For each PCR the PCR efficiency and the Cq value was determined by the program LinRegPCR and these were used in further calculations. B2M (β2-microglobulin) was identified from multiple reference genes to be suitable for examination conditions. All results are results relative to the corresponding reference conditions, at which only solvent was administered for the specified period of time (i.e. 2 days, 7 days or 14 days). In FIGS. 5A to 5I are also relative gene expressions (relative to reference conditions) presented. Here, the 2-day exposition is presented in light grey, the 7-day exposition in dark grey and the 14-day exposition in black. Every measured value from FIGS. 5A-5I represents a mean value of 3 independent biologic samples.
Analogous to example 4 RT-PCR experiments with the inventive active agent 7-fluoro-9-methyl-β-carboline (7F9MβC) were also performed for some important cellular factors. The experimental procedure was here identical to the experiments with 6-fluoro-9-methyl-β-carboline and 9-methyl-β-carboline. Here the same (like for 6F9MβC) final concentrations of 30 μM, 50 μM and 70 μM 7F9MβC for the culture medium were employed. The examined factors were BDNF (brain-derived neurotrophic factor), Lif (Leukemia inhibitory factor), DRD2S (short variant of dopamine receptor subtype 2) as well as DKK1 (Dickkopf-related protein 1). The same primers, that were already listed for the respective target genes in example 4 (Tab. 1) were used. As already noted, especially BDNF and Lif belongs to the most important factors for cellurar repair processes after traumas in the inner ear.

quotient Bax/Bcl2 = experiment: Quantitative RT-PCR, quotient Bax/Bcl2 (apoptosis marker) in SH-SY5Y cells; format: cell-based, human; conditions: 30 μM each, except after 2-day exposition
Protocol: as §1
(§6) The cells were incubated in MEM (Minimum essential medium, Life Technologies) with 10% FCS (fetal calf serum, Biochrom AG) and penicillin/streptomycin (Biochrom AG). The cells were seeded with a density of 1×10^5 cells/cm^2 in 25 cm^2 cell culture bottles (Falcon, cell culture treated) with 5 mL medium. […]
as §4, §5
(§7) The specificity was verified by melting curve analysis and subsequent gel electrophoresis. For each PCR the PCR efficiency and the Cq value was determined by the program LinRegPCR and these were used in further calculations. […]

[3] = Degradation in liver homogenate to toxic dimethylated degradation products (HPLC); conditions: rat liver homogenate, conclusion
Protocol: Also a reference measurement with pure 6-fluoro-9-methyl-β-carboline (6F9MβC) was performed.
To simulate the degradation process in the liver, different concentrations (1 μM, 10 μM and 100 μM) of 6-fluoro-9-methyl-β-carboline (6F9MβC) were incubated with homogenized rat liver for an hour under physiological conditions (37° C. in physiological phosphate-buffered sodium chloride solution, PBS). Subsequently, a HPLC measurement of the filtrated extract was carried out.
The characterization of each substance was achieved by high-performance liquid chromatography (HPLC, partly also named as high-pressure liquid chromatography). For HPLC the eluent consisted to 45% of 90% acetonitrile and to 55% of ammonium acetate (40 mM, pH<5). The flow rate was 0.4 mL/min and injection volume was 10 μL. Each sample was diluted with 60% methanol, if the signal was too strong.

[4] = test system: BTG2 (B-cell translocation gene 2); experiment: Quantitative RT-PCR, relative gene expression of BTG2 in SH-SY5Y cells; format: cell-based, human; conditions: 10 μM 6F9MβC, except after 2-day exposition
Protocol: as §1, §6, §4, §5, §7

[5] = test system: Cbln (Cerebellin 1 precursor protein); experiment: Quantitative RT-PCR, relative gene expression of Cbln in SH-SY5Y cells; format: cell-based, human; conditions: 30 μM each, except after 2-day exposition
Protocol: as §1, §6, §4, §5, §7

Cn1c2ccc(F)cc2c2ccncc21 [6F9MβC, 6-fluoro-9-methyl-β-carboline]
time until the criteria (only one mistake) were reached (learning behavior): 6 days
increase of the concentration of CREB (factor) (CREB): 8
BDNF expression relative to expression induced by 9MβC [1]: approximately twice as high
Lif expression relative to expression induced by 9MβC ([2]; 2-day exposition): approximately three times as high
Lif expression relative to expression induced by 9MβC ([2]; 7-day exposition): slightly lower
Lif expression relative to expression induced by 9MβC ([2]; 14-day exposition): approximately twice as high
quotient Bax/Bcl2 compared to 9MβC (quotient Bax/Bcl2): significantly lower
metabolization to known toxic (di-methylated) degradation products [3]: does not lead to toxic di-methylated products
metabolization to known toxic (di-methylated) degradation products ([3]; listed as 6-fluoro-9-methyl-β-carboline): does not metabolize to known toxic degradation products
BTG2 expression compared to the highest concentration of 9MβC [4]: comparable
Cbln expression relative to expression induced by 9MβC [5]: approximately 1.5 times

Source: patent US9630964B2, “Fluoro-9-methyl-β-carbolines” (priority 2013, dated 2017)
